The experiment deals with T1, androgen receptor (Homo sapiens, UniProt P10275).
T1 sequence (P10275 1-920 T878A): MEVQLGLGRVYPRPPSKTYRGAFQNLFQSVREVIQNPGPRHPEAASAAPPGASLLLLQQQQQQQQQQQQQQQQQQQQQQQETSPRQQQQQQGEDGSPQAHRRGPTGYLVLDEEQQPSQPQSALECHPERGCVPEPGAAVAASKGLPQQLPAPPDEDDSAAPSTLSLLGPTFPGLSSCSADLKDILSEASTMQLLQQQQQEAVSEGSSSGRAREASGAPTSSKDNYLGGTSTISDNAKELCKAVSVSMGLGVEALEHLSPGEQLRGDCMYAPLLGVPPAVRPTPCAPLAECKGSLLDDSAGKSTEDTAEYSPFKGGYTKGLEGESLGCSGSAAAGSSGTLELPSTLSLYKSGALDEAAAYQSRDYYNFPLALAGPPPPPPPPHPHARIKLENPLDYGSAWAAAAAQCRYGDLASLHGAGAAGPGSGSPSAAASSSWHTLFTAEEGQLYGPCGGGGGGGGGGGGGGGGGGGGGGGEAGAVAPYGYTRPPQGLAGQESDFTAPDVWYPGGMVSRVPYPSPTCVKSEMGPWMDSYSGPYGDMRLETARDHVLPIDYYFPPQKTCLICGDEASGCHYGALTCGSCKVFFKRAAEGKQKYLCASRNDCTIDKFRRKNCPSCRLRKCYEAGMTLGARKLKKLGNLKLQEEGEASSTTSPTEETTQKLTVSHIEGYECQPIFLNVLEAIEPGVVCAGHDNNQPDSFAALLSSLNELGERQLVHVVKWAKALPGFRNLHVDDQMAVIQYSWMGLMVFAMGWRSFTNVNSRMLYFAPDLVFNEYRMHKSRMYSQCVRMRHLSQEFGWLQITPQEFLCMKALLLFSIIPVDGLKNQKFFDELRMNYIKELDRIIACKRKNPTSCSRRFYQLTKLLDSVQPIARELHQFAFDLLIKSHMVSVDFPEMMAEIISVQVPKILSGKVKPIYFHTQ
In words: Assay for binding affinity to androgen receptor ([3H]methyltrienolone radioligand, cell cytosol). The conditions noted are these: 1 nM [3H]methyltrienolone, 24 hours at 4° C., Table 5. On the procedure: Fractions of cell cytosol ([…] cell/point) were incubated for 24 hours at 4° C. with 1 nM [^3H]methyltrienolone in the absence or presence of the test compound in a buffer containing 25 mM Hepes-Tris (pH 7.4), 1 mM EDTA, 10 mM Na2MoO4, 2 mM DTT, 5 μM triamcinolone acetonide, and 10% glycerol. Nonspecific binding was determined in the presence of 1 μM testosterone. Following incubation, the samples were filtered rapidly under vacuum through glass fiber filters (GF/B, Packard) presoaked with 0.3% PEI and rinsed several times with ice-cold 50 mM Tris-HCl using a 96-sample cell harvester (Unifilter, Packard). The filters were dried then counted for radioactivity in a scintillation counter (Topcount, Packard) using a scintillation cocktail (Microscint 0, Packard). The results are expressed as a percent inhibition of the control radioligand specific binding. The standard reference compound is testosterone, which is tested in each experiment at several concentrations to obtain a competition curve from which its IC50 is calculated.

Turning to `Cc1sc2c(c1C)C(c1ccc(Cl)cc1)=N[C@@H](CC(=O)NCCN(C)c1ncc(C(=O)N[C@H]3C(C)(C)[C@H](Oc4ccc(C#N)c(Cl)c4)C3(C)C)cn1)c1nnc(C)n1-2` [Compound I-1, N-[3-(3-chloro-4-cyano-phenoxy)-2,2,4,4-tetramethyl-cyclobutyl]-2-[2-[[2-[(9S)-7-(4-chlorophenyl)-4,5,13-trimethyl-3-thia-1,8,11,12-tetrazatricyclo[8.3.0.02,6]trideca-2(6),4,7,10,12-pentaen-9-yl]acetyl]amino]ethyl-methyl-amino]pyrimidine-5-carboxamide], the Kd is below 50 nM.
As for `Cc1sc2c(c1C)C(c1ccc(Cl)cc1)=N[C@@H](CC(=O)NCCCN1CCN(CCCN(C)c3ncc(C(=O)N[C@H]4C(C)(C)[C@H](Oc5ccc(C#N)c(Cl)c5)C4(C)C)cn3)CC1)c1nnc(C)n1-2` [Compound I-5, N-((1r,3r)-3-(3-chloro-4-cyanophenoxy)-2,2,4,4-tetramethylcyclobutyl)-2-((3-(4-(3-(2-((S)-4-(4-chlorophenyl)-2,3,9-trimethyl-6H-thieno[3,2-f][1,2,4]triazolo[4,3-a][1,4]diazepin-6-yl)acetamido)propyl)piperazin-1-yl)propyl)(methyl)amino)pyrimidine-5-carboxamide], the Kd was below 50 nM.
On to `Cc1sc2c(c1C)C(c1ccc(Cl)cc1)=N[C@@H](CC(=O)NCCOCCOCCOC1CCN(c3ncc(C(=O)N[C@H]4C(C)(C)[C@H](Oc5ccc(C#N)c(Cl)c5)C4(C)C)cn3)CC1)c1nnc(C)n1-2` [Compound I-7], for which the dissociation constant Kd was below 50 nM.
With `Cc1sc2c(c1C)C(c1ccc(Cl)cc1)=N[C@H](CC(=O)NCCOCCOCCOCCOCCOCCOCCOC1CCN(c3ncc(C(=O)N[C@H]4C(C)(C)[C@H](Oc5ccc(C#N)c(Cl)c5)C4(C)C)cn3)CC1)c1nnc(C)n1-2` [Compound I-9], the dissociation constant (Kd) is below 50 nM.
`Cc1sc2c(c1C)C(c1ccc(Cl)cc1)=N[C@@H](CC(=O)NCCCN1CCN(CCCOC3CCN(c4ncc(C(=O)N[C@H]5C(C)(C)[C@H](Oc6ccc(C#N)c(Cl)c6)C5(C)C)cn4)CC3)CC1)c1nnc(C)n1-2` [Compound I-10]: the Kd was below 50 nM.
In the case of `Cc1sc2c(c1C)C(c1ccc(Cl)cc1)=N[C@@H](CC(=O)NCCOCCOCCOCC1CN(c3ncc(C(=O)N[C@H]4C(C)(C)[C@H](Oc5ccc(C#N)c(Cl)c5)C4(C)C)cn3)C1)c1nnc(C)n1-2` [Compound I-18], the Kd is below 50 nM.
For `Cc1sc2c(c1C)C(c1ccc(Cl)cc1)=N[C@@H](CC(=O)NCCCCCCCOC1CCN(c3ncc(C(=O)N[C@H]4C(C)(C)[C@H](Oc5ccc(C#N)c(Cl)c5)C4(C)C)cn3)CC1)c1nnc(C)n1-2` [Compound I-24] the value was below 50 nM.
For `Cc1sc2c(c1C)C(c1ccc(Cl)cc1)=N[C@@H](CC(=O)NCCCCOCCOC1CCN(c3ncc(C(=O)N[C@H]4C(C)(C)[C@H](Oc5ccc(C#N)c(Cl)c5)C4(C)C)cn3)CC1)c1nnc(C)n1-2` [Compound I-28], the Kd is below 50 nM.
Take `Cc1sc2c(c1C)C(c1ccc(Cl)cc1)=N[C@@H](CC(=O)NCCCN1CCN(CC3CCN(c4ncc(C(=O)N[C@H]5C(C)(C)[C@H](Oc6ccc(C#N)c(Cl)c6)C5(C)C)cn4)CC3)CC1)c1nnc(C)n1-2` [Compound I-36, N-((1r,3r)-3-(3-chloro-4-cyanophenoxy)-2,2,4,4-tetramethylcyclobutyl)-2-(4-((4-(3-(2-((S)-4-(4-chlorophenyl)-2,3,9-trimethyl-6H-thieno[3,2-f][1,2,4]triazolo[4,3-a][1,4]diazepin-6-yl)acetamido)propyl)piperazin-1-yl)methyl)piperidin-1-yl)pyrimidine-5-carboxamide]: the dissociation constant Kd is below 50 nM.
With `Cc1sc2c(c1C)C(c1ccc(OCCOC3CCN(c4ncc(C(=O)N[C@H]5C(C)(C)[C@H](Oc6ccc(C#N)c(Cl)c6)C5(C)C)cn4)CC3)cc1)=N[C@@H](CC(=O)O)c1nnc(C)n1-2` [Compound I-38] the figure was below 50 nM.
Consider `Cc1sc2c(c1C)C(c1ccc(OCCOCCOC3CCN(c4ncc(C(=O)N[C@H]5C(C)(C)[C@H](Oc6ccc(C#N)c(Cl)c6)C5(C)C)cn4)CC3)cc1)=N[C@@H](CC(=O)O)c1nnc(C)n1-2` [Compound I-39], for which the Kd was below 50 nM.
Take `Cc1sc2c(c1C)C(c1ccc(OCCOCCOCCOC3CCN(c4ncc(C(=O)N[C@H]5C(C)(C)[C@H](Oc6ccc(C#N)c(Cl)c6)C5(C)C)cn4)CC3)cc1)=N[C@@H](CC(=O)O)c1nnc(C)n1-2` [Compound I-40]: the Kd is below 50 nM.
`Cc1sc2c(c1C)C(c1cccc(OCCOC3CCN(c4ncc(C(=O)N[C@H]5C(C)(C)[C@H](Oc6ccc(C#N)c(Cl)c6)C5(C)C)cn4)CC3)c1)=N[C@@H](CC(=O)O)c1nnc(C)n1-2` [Compound I-41] came in with a dissociation constant Kd below 50 nM.
With `Cc1sc2c(c1C)C(c1cccc(OCCOCCOC3CCN(c4ncc(C(=O)N[C@H]5C(C)(C)[C@H](Oc6ccc(C#N)c(Cl)c6)C5(C)C)cn4)CC3)c1)=N[C@@H](CC(=O)O)c1nnc(C)n1-2` [Compound I-42] the figure was below 50 nM.
With `Cc1sc2c(c1C)C(c1cccc(OCCOCCOCCOC3CCN(c4ncc(C(=O)N[C@H]5C(C)(C)[C@H](Oc6ccc(C#N)c(Cl)c6)C5(C)C)cn4)CC3)c1)=N[C@@H](CC(=O)O)c1nnc(C)n1-2` [Compound I-43] the figure was below 50 nM; with `CCNC(=O)C[C@@H]1N=C(c2ccc(OCCOCCOC3CCN(c4ncc(C(=O)N[C@H]5C(C)(C)[C@H](Oc6ccc(C#N)c(Cl)c6)C5(C)C)cn4)CC3)cc2)c2c(sc(C)c2C)-n2c(C)nnc21` [Compound I-44], below 50 nM; with `CCNC(=O)C[C@@H]1N=C(c2ccc(OCCOCCOCCOC3CCN(c4ncc(C(=O)N[C@H]5C(C)(C)[C@H](Oc6ccc(C#N)c(Cl)c6)C5(C)C)cn4)CC3)cc2)c2c(sc(C)c2C)-n2c(C)nnc21` [Compound I-45, N-((1r,3r)-3-(3-chloro-4-cyanophenoxy)-2,2,4,4-tetramethylcyclobutyl)-2-(4-(2-(2-(2-(4-((S)-6-(2-(ethylamino)-2-oxoethyl)-2,3,9-trimethyl-6H-thieno[3,2-f][1,2,4]triazolo[4,3-a][1,4]diazepin-4-yl)phenoxy)ethoxy)ethoxy)ethoxy)piperidin-1-yl)pyrimidine-5-carboxamide], below 50 nM.
For `CCNC(=O)C[C@@H]1N=C(c2cccc(OCCOC3CCN(c4ncc(C(=O)N[C@H]5C(C)(C)[C@H](Oc6ccc(C#N)c(Cl)c6)C5(C)C)cn4)CC3)c2)c2c(sc(C)c2C)-n2c(C)nnc21` [Compound I-46, N-((1r,3r)-3-(3-chloro-4-cyanophenoxy)-2,2,4,4-tetramethylcyclobutyl)-2-(4-(2-(3-((S)-6-(2-(ethylamino)-2-oxoethyl)-2,3,9-trimethyl-6H-thieno[3,2-f][1,2,4]triazolo[4,3-a][1,4]diazepin-4-yl)phenoxy)ethoxy)piperidin-1-yl)pyrimidine-5-carboxamide] the value was below 50 nM; for `CCNC(=O)C[C@@H]1N=C(c2cccc(OCCOCCOC3CCN(c4ncc(C(=O)N[C@H]5C(C)(C)[C@H](Oc6ccc(C#N)c(Cl)c6)C5(C)C)cn4)CC3)c2)c2c(sc(C)c2C)-n2c(C)nnc21` [Compound I-47, N-((1r,3r)-3-(3-chloro-4-cyanophenoxy)-2,2,4,4-tetramethylcyclobutyl)-2-(4-(2-(2-(3-((S)-6-(2-(ethylamino)-2-oxoethyl)-2,3,9-trimethyl-6H-thieno[3,2-f][1,2,4]triazolo[4,3-a][1,4]diazepin-4-yl)phenoxy)ethoxy)ethoxy)piperidin-1-yl)pyrimidine-5-carboxamide], below 50 nM; for `CCNC(=O)C[C@@H]1N=C(c2ccc(OCC3CN(c4ncc(C(=O)N[C@H]5C(C)(C)[C@H](Oc6ccc(C#N)c(Cl)c6)C5(C)C)cn4)C3)cc2)c2c(sc(C)c2C)-n2c(C)nnc21` [Compound I-71], below 50 nM.
On to `CCNC(=O)C[C@@H]1N=C(c2ccc(OCCCN(C)c3ncc(C(=O)N[C@H]4C(C)(C)[C@H](Oc5ccc(C#N)c(Cl)c5)C4(C)C)cn3)cc2)c2c(sc(C)c2C)-n2c(C)nnc21` [Compound I-81], for which the Kd was below 50 nM.
For `CCNC(=O)C[C@@H]1N=C(c2ccc(OCCCC#Cc3ncc(C(=O)N[C@H]4C(C)(C)[C@H](Oc5ccc(C#N)c(Cl)c5)C4(C)C)cn3)cc2)c2c(sc(C)c2C)-n2c(C)nnc21` [Compound I-83] the value was below 50 nM.

These data come from US20260062422A1 (Halda Therapeutics OpCo, Inc., priority 2022, published 2026).
